Take `O=C(Cn1nc(Br)nc1Br)N1CCC(c2nc(C3=NOC(c4c(F)cccc4F)C3)cs2)CC1` (stereo not given): the melting point (commonly the temperature of the solid-liquid transition) lay in the range of 185 to 189 °C.
`O=C1NC(=O)C(Cc2ccc(OC[C@@H]3CCCN3c3ccccn3)cc2)S1` (stereo not given in full): the melting point fell in the range of 78 to 80 °C.
`COC(=O)c1ccc(CNc2cc(C(=O)Nc3ccccc3)ccc2OC)cc1` displayed a melting point of 170 to 172 °C.
On to `O=Cc1ccc2cc3c(cc2c1)sc1ccccc13`, for which the melting point was in the range of 182 to 185 °C.
The compound `C=CC(=O)NC1CCCCC1` had a melting point of 109 to 110 °C.
As to `O=c1c2ccc(Cl)cc2[nH]n2cccc12`, the melting point is more than 300 °C.
Take `CCCCS(=O)(=O)C1(CCCCN2CCC(N3Cc4ccccc4C3=O)CC2)c2ccccc2-c2ccccc21`: the melting point was in the range of 130 to 132 °C.
On to `Clc1ccc(C2CCc3ccccc3O2)cc1` (stereo not given), for which the melting point lay within 76 to 77 °C.
As for `CC(=O)NCc1cc(-c2ccccc2)c2c(n1)OCCN(Cc1cc(C(F)(F)F)cc(C(F)(F)F)c1)C2=O`, the melting point lay within 223 to 224 °C.
The compound `Cc1c(C)c2c(c(C)c1OCc1ccccc1)CCC(C)(CC(=O)O)O2` (stereo not given) returned a melting point of 91 to 96 °C.
In the case of `O=C(O)c1ccc(-c2cc(-c3ccc(Cl)cc3)no2)cc1` it was more than 300 °C; in that of `CN(Sc1nc2ccccc2s1)C(=O)Oc1cccc2c1OC(C)(C)C2`, 92 to 93 °C; in that of `O=C(CN(C(=O)CCl)C1Cc2ccccc2C1)OCc1ccccc1`, 99.5 to 100 °C.
Consider `Cn1c(-c2ccc(N3CCOCC3)cc2)cnc1[C@H](Cc1ccccn1)N(C=O)c1cc2cc(F)ccc2o1`, for which the melting point is 130 to 132 °C.
In turn, `Cc1ccc(C(=O)C(=C2NCCCS2)[N+](=O)[O-])cc1` returned a melting point of 141 to 143 °C.
The compound `N#Cc1c(Cl)cccc1C(F)(F)F` yielded a melting point of 45 to 47 °C.
For `N#Cc1c(N2CCc3ccccc3CC2)nc(=O)[nH]c1OCC(F)(F)F`, the melting point was 196 to 198 °C.
On to `CCOC(=O)C(C#N)=Cc1ccc(OC)c2c1CC(C)(C)O2`, for which the melting point is 112 to 117 °C.
On to `N#Cc1ccc2cc(CCCCCc3cc4ccc(C#N)cc4o3)oc2c1`, for which the melting point lay within 106 to 107 °C.
In the case of `COC(=O)c1nc2cccc(C(F)(F)F)c2c(O)c1C(=O)OC`, the melting point was 180 to 182 °C.
`CS(=O)(=O)SCCOC(=O)Cc1cccc(Nc2c(Cl)cccc2Cl)c1`: the melting point was in the range of 41 to 44 °C.
In the case of `CC(C)c1sc2ncnc(N)c2c1-c1ccc(NC(=O)c2ccccc2)cc1` it was more than 250 °C; in that of `COc1cc(OC)cc(N2CCN(C(=O)N(C)c3cc4ccccc4nc3OC)CC2)c1`, 88 to 89 °C.
Take `O=C(O)CCCNC(=O)c1cc(Cl)ccc1O`: the melting point is 136 to 140 °C.
In the case of `CC1(C)CCC(C(=O)N2CCC[C@H]2C(=O)O)C1S` (stereo not given in full) it was 153 °C; in that of `O=c1[nH][nH]c(=O)c2c(O)c3c(Br)cccc3nc12`, 280 to 281 °C.
As to `C#CCN(C(C)C)C(C)CC1=C2c3ccc(OC)cc3CCC2CCNC1=O` (stereo not given), the melting point fell in the range of 146 to 148 °C.
`O=C(Cc1c(-c2ccccc2)c2cc(CSc3ccccn3)c(Cl)cc2oc1=O)Nc1ccc(F)cc1C(F)(F)F` gave a melting point of 195 to 196 °C.
`Cc1cccc2nc(-c3ccccc3)n(C3CCC(=O)NC3=O)c(=O)c12` (stereo not given) gave a melting point of 298 to 300 °C.
Turning to `Cn1c(=O)c(-c2ccccc2)cc2cnc(N)nc21`, the melting point is 250 to 255 °C.
On to `CCCCNC(=O)CCCCCCCSc1nc(-c2ccccc2)c(-c2ccccc2)[nH]1`, for which the melting point is 136 to 137 °C.
With `CCOC(=O)c1cc2cccc(NC(=O)OC(C)(C)C)c2[nH]1`, the melting point lay in the range of 132 to 133 °C.
For the compound `COc1ccc2cccc3c2c1CCC3CNC(C)=O` (stereo not given), the melting point was determined as 126 °C.
`CC(C)(C)NCC(O)COc1ccc(C(N)=O)cc1I` (stereo not given) came in with a melting point of 111 to 114 °C.
Consider `CCON=Cc1cc(-n2c(=O)n(C)c(=S)n(C)c2=O)ccc1Cl`, for which the melting point was 139 to 141 °C.
For `C=CCN(CC=C)C(=O)C1CC(C)(C)NC(C)(C)C1`, the melting point was 64 to 67 °C.
The same measure for `Nc1c(F)c(Cc2ccc(F)cc2)nc(C=O)c1Cl`: 109 to 111 °C; for `O=c1c2ccccc2[nH]c2c(OCCCCN(CCO)CCO)cccc12`: 124 to 126 °C; for `CNC(=O)C(C)c1ccc2c(c1)CCc1ccccc1C2=O` (stereo not given): 140 °C.
Compound `NS(=O)(=O)c1cccc(NC(=O)c2cnn3c(C(F)F)cc(-c4ccc(C(F)(F)F)c(OCC(F)(F)F)c4)nc23)c1` came in with a melting point of 241 °C.
Turning to `CCOC(=O)CCCCCCCn1c(C)nc(-c2ccccc2)c1-c1ccccc1`, the melting point lay within 135 to 136 °C.
The same measure for `COC(=O)C1Oc2ccc3c(-c4ccccc4)noc3c2O1` (stereo not given): 78 to 80 °C; for `CCCCC(=O)c1c(-c2ccc3cc(OCC(=O)O)ccc3c2)oc2ccccc12`: 130 to 132 °C.
With `COc1ccc(C2=NN(c3cnc4ccccc4n3)C(=O)[C@H]3CC=CC[C@@H]23)cc1Cl` (relative stereo), the melting point lay within 172 to 174 °C.
As to `COc1ccc(C(=O)NC(=O)Nc2ccc3c(c2)NC(=O)/C3=C/c2ccc(Cl)cc2)cc1`, the melting point lay in the range of 278 to 283 °C.
In the case of `CNc1n[nH]c(=O)n1NC` it was 135 to 137 °C.
Turning to `CCCCc1nc(Cl)c(CC#N)n1Cc1ccc([N+](=O)[O-])cc1`, the melting point lay in the range of 118 to 121 °C.
On to `Cc1ccccc1C(=O)Nc1ccc(C(=O)N2CCCC(=O)c3cc(Cl)ccc32)c(C)c1`, for which the melting point was in the range of 134 to 142 °C.
The compound `Cc1nc(C)c(-c2ccnc(Nc3ccc(C)c(S(=O)(=O)N4CCOCC4)c3)n2)s1` displayed a melting point of 81 to 83 °C.
`COc1cccc(CNC(=O)C(C)(C)COc2cccc3nc(C)c(C(=O)O)c(N)c23)c1` showed a melting point of 172 to 174 °C.
Consider `CS(=O)(=O)c1nnc(-c2ccnc(Nc3cccc(C(F)(F)F)c3)c2)o1`, for which the melting point fell in the range of 105 to 106 °C.
The same measure for `O=C(O)CCC(=O)Nc1ccc(-c2ccncc2)cc1`: 251 to 252 °C.
With `CCOP(=O)(CCOc1ccc(C(=O)O)cc1)OCC`, the melting point was in the range of 86 to 88 °C.
The compound `S=C=Nc1ccc(Cl)c(Cl)c1` had a melting point of 111 to 113 °C.
`COC(=O)[C@@H]1O[C@H](c2ccc(OC)cc2)N(C(=O)OC(C)(C)C)[C@H]1c1ccccc1` registered a melting point of 104 to 105 °C.
In the case of `COc1cc2ncc(C#N)c(Nc3ccc(C)c(O)c3)c2cc1OC` it was 222 to 224 °C; in that of `CCC1(C)NC(=O)C(C)(CC)N1` (stereo not given), 58 to 64 °C.
In the case of `Cc1ccc2c3c(ncc2c1)CCC(=O)N3`, the melting point was 265 to 266 °C.
As for `O=[N+]([O-])c1ccc2c(c1)S(=O)(=O)N=C(NCC1CC1)N2`, the melting point fell in the range of 276 to 278 °C.
In turn, `COC(=O)C=Cc1ccc2[nH]ccc2c1` gave a melting point of 138 to 140 °C.
In the case of `CS(=O)c1ccc(-c2cnn3c(O)ncnc23)cc1` (stereo not given) it was 285 to 286 °C; in that of `CSc1nc(=O)n(C2CCCCC2)c(=O)n1C`, 137 to 139 °C; in that of `COC(=O)c1cccc(C2C(C#N)=C(N)Oc3c2ccc2ncccc32)c1` (stereo not given), 203 to 206 °C.
Regarding `C=CCc1cc2c(c(CC=C)c1O)CCC(=O)N2CCO`, the melting point was in the range of 106 to 108 °C.
On to `C#CCOC(=O)c1ccc(OCCC2CCN(c3ccc(Cl)nn3)CC2)cc1`, for which the melting point was found to be 122 °C.

These data come from a melting point compilation (Tetko et al.; mined from patent text by program, amines drawn as free bases though some values may be those of a salt).
